Values joined by “and” are separate entries in the source; they are usually repeats but may differ in a detail not shown here. Equal values may be shown once.
Assays:
[1] = tested on: congenitally anxious Fawn-Hooded (FH) rats; assay: Social interaction test, Fawn Hooded (FH) rat model of anxiety; assay type: in vivo; details: 15 mg/kg i.p., 30 min after injection
Text: (§1) Experienced observers blinded to the experimental conditions carried out the social interaction test in a square open field (60 cm by 60 cm, with 16 15×15 cm squares marked out on the floor). Pairs of rats receiving the same treatment were placed in the arena and the onset of social interactions recorded. This procedure has been validated by previous studies (Overstreet et al. (2002); Overstreet et al. (2003)). Rats were unfamiliar with the open field and lighting conditions were low in order to generate an intermediate level of anxiety-related behavior. Rat pairs matched according to weight and treatment were placed simultaneously in the open field. During the 5-min session, line crosses (by two forepaws) and time spent in social interaction (grooming, sniffing, following) were scored individually for each rat (Kampov-Polevoy et al., 2000; Overstreet et al., 2002, 2003).

[2] = tested on: alcohol-withdrawn Sprague-Dawley (SD) rats; assay: Social interaction test, repeated alcohol withdrawal-induced anxiety; assay type: in vivo, rat
Text: as §1
Ethanol Exposure Studies: Individually housed Sprague-Dawley (SD) rats were given a complete nutritious liquid diet (Knapp et al., 2004; Overstreet et al., 2002) after 5 days to adapt to local conditions. Three days later, most of rats received a 4.5% ethanol liquid diet and others remained on the control liquid diet without ethanol. Rats consumed ethanol for 15 days in three cycles of 5 days each separated by a 2-day withdrawal period between cycles. This design enabled us to test two treatment regimens with Compound A. Acute effects of Compound A (3.75 and 15 mg/kg) were determined 4.5 hr after the 3rd ethanol cycle to allow alcohol washout. The social interaction test was carried out 30 min later.

[3] = tested on: SD rats subjected to restraint stress; assay: Social interaction test, restraint-induced stress; assay type: in vivo, rat; details: 15 mg/kg pretreatment
Text: as §1
Restraint-Induced Stress Study: SD rats were injected with either CMC vehicle or 15 mg/kg Compound A in vehicle and subjected to restraint stress in decapicones for one hour. After a 30-min recovery period, the rats were exposed to the open field arena for […] and social interaction and line crosses recorded.

[4] = tested on: Sprague-Dawley rats treated with DMCM; assay: Social interaction test, DMCM-induced anxiety; assay type: in vivo, rat; details: 3.75, 7.5 or 15 mg/kg i.p. 15 min before 0.5 mg/kg DMCM
Text: as §1
(§2) Fifteen min later the rats received a second injection of 0.5 mg/kg DMCM (methyl 6,7-demethoxy-4-ethyl-β-carboline-3-carboxylate) or vehicle (acidified saline). The rats were placed in the open field arena 15 min after the second injection for recording social interaction and locomotor activity for 5-min. Approximately one week later the rats were treated with Compound A (3.75, 7.5 or 15 mg/kg). The 5-HT2C agonist mCPP (m-chlorophenylpiperazine; 0.5 mg/kg) or vehicle (saline) was given 15 min later. After another 15 min period, the social interaction and locomotor activity for five min were recorded.

[5] = tested on: Sprague-Dawley rats treated with mCPP; assay: Social interaction test, mCPP-induced anxiety; assay type: in vivo, rat; details: 3.75, 7.5 or 15 mg/kg 15 min before 0.5 mg/kg mCPP
Text: as §1, §2

Rats [6] = assay: Example 32 social interaction, line crosses and center entries; assay type: in vivo, rat; design: Social Interaction, Mean / Social Interaction, individual rat: unit not given here; details: 15 mg/kg
Text: (§3) One noninjected rat was included in the control group for water intake.

Rats [7] = assay: Example 32 alcohol, food and water intake; assay type: in vivo, rat; details: 15 mg/kg
Text: as §3

[8] = target: T1, hALDH2 (recombinant human mitochondria ALDH) (Homo sapiens, UniProt P05091); assay: ALDH2 inhibition assay (NADH formation, formaldehyde substrate); assay type: biochemical
T1 sequence (P05091 18-517): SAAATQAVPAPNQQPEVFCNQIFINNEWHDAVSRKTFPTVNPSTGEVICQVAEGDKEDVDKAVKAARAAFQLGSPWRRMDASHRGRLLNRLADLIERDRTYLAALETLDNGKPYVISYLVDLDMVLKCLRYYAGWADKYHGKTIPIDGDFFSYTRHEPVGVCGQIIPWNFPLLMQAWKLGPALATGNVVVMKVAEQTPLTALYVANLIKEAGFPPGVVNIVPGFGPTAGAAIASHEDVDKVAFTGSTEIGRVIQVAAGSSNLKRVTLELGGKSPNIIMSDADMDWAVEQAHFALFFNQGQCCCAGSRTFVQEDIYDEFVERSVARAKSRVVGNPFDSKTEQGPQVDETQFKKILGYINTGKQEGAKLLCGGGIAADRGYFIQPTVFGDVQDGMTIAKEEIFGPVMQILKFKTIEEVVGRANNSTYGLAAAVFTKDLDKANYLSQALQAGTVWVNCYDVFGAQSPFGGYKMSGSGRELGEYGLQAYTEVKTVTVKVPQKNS
Procedure, shortened: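 1 nM enzyme in 50 mM sodium phosphate pH 7.4 with 1.2 mM NAD+ and compound at 0.03–1000 nM; reaction started with 0.15 mM formaldehyde at 25 °C. NADH formation followed by fluorescence (ex 340/em 460 nm). IC50 from sigmoidal fits with floating Hill slope; apparent Ki from Morrison equation if tight binding.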

hMAO-A = target: T2, hMAO-A (Homo sapiens, UniProt P21397); assay: MAO-A inhibition assay (Amplex Red, horseradish peroxidase-coupled); assay type: biochemical
T2 construct: purchased Sigma M7316
T2 sequence (P21397 1-527): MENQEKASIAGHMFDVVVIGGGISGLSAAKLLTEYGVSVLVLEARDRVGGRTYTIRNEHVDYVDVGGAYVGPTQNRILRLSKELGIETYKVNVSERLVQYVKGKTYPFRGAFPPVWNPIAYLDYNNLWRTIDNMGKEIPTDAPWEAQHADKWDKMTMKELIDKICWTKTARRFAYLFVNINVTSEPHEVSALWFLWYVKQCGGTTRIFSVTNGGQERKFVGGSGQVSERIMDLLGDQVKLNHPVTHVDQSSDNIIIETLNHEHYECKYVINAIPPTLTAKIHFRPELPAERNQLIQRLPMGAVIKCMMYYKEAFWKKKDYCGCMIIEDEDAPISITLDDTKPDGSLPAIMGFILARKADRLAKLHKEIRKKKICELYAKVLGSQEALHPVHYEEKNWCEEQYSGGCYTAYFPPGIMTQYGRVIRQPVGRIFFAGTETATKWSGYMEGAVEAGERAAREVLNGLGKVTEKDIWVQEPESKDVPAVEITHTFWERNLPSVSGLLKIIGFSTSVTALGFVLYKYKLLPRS
Method: (§4) MAO-A (Sigma M7316) and MAO-B (Sigma M7441) inhibition assays were conducted in 96-well micro-plates according to the method described by Zhou et al. [Analytical Biochemistry 253, 169-174, 1997]. Both assays were performed in potassium phosphate buffer (0.1 M, pH 7.5) containing 0.5 mM tyramine (Sigma T2879), 0.12 mM N-acetyl-3,7-dihydrophenoxazine (Amplex Red, Invitrogen A12222), 1.2 unit/ml horseradish peroxidase (Sigma P2088), 0.6 unit/ml MAO-A or 2.5 unit/ml MAO-B, and various concentrations of test compounds (0.1 nM to 10 uM). Reactions were initiated by the addition of a pre-mixed solution of tyramine, horseradish peroxidase and Amplex Red, and were allowed to proceed at 37° C. for 30 min. Enzyme activities were determined by measuring absorbance at 570 nm (SpectralMax Plate reader), absorbance of oxidized Amplex Red generated by this horseradish peroxidase-coupled reaction. Nonspecifically formed products were determined in the presence of 2 and 10 µM clorgyline and deprenyl for MAO-A and MAO-B, respectively. IC50 values were determined by fitting concentration-inhibition data to sigmoidal dose-response curves with two-floating parameters: IC50 and Hill coefficient.

hMAO-B = target: T3, hMAO-B (Homo sapiens, UniProt P27338); assay: MAO-B inhibition assay (Amplex Red, horseradish peroxidase-coupled); assay type: biochemical
T3 construct: purchased Sigma M7441
T3 sequence (P27338 1-520): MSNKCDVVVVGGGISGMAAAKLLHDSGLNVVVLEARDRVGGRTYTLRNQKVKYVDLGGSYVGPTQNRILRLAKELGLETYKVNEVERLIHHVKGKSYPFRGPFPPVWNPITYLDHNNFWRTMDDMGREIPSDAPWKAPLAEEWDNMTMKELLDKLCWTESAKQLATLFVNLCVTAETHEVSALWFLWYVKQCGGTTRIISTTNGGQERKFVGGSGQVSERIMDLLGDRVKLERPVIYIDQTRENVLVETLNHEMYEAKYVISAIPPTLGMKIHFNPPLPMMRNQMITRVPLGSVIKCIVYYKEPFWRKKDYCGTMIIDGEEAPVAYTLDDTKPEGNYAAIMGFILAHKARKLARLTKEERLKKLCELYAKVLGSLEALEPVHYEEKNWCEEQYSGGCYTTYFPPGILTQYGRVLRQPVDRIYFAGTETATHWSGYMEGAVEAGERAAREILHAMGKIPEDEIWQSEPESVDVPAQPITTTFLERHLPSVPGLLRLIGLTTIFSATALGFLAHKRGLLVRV
Method: as §4

Syrian golden hamsters = details: compared with daidzin; cited from earlier work
[9] = 30 min before test, listed as Comp. A

## CS(=O)(=O)Nc1ccc(-c2coc3cc(OCc4cccc(C(=O)O)c4)ccc3c2=O)cc1 [Compound A, 3-[(3-{4-[(methylsulfonyl)amino]phenyl}-4-oxochromen-7-yloxy)methyl]benzoic acid]
[1]
  locomotor line crossing: did not affect locomotor line crossing
[1]; vs vehicle
  increase in social interaction: 2 fold
[2]; 3.75-15 mg/kg during 1st and 2nd withdrawals, none after 3rd cycle, tested 5 days after last dose
  social interaction behavior, prophylactic treatment: increased social interaction behavior prophylactically
[2]; acute treatment after alcohol withdrawal, SD rats
  locomotor activity: No significant differences
[2]; acute, 3.75 and 15 mg/kg injected 30 min before testing, SD rats
  time of social interaction after alcohol withdrawal: increased the time of social interaction
[2]; acute, higher doses, SD rats
  social interaction behavior after alcohol withdrawal: completely normalizing the behavior
[2]; compared to vehicle treated rats withdrawn from the alcohol liquid diet
  locomotor activity (line crosses), prophylactic treatment: barely significant effect
[3]
  locomotor activity after restraint stress: no significant
[3]; restraint 60 min, 30-min recovery
  social interaction after restraint stress: prevented stress-induced anxiety-like behavior
[4]
  anxiogenic effects of DMCM (reduced social interaction): prevented by Compound A in a dose-dependent manner
  reduced locomotor activity caused by DMCM: not affected by Compound A, except at 7.5 mg/kg
[5]
  mCPP-induced anxiogenesis (social interaction): did not prevent mCPP-induced anxiogenesis
Rats [6]; 30 min before test, n=6
  Center Entries, Mean: 19.3
  Line Crosses, Mean: 109
Rats [6]; [9]
  Center Entries, individual rat: 28 and 25 and 18 and 13 and 26 and 6
  Line Crosses, individual rat: 135 and 125 and 84 and 113 and 104 and 90
Rats [6]; 30 min before the social interaction, n=6
  Social Interaction, Mean: 13.3
Rats [6]; 30 min before the social interaction, listed as Comp. A
  Social Interaction, individual rat: 13 and 16 and 14 (2×) and 11 and 12
Rats [6]; vs vehicle
  activity, in words: not activity
  social interaction (anxiolytic effect), in words: increased social interaction
Rats [7]
  food intake, in words: did not affect
  water intake, in words: did not affect
Rats [7]; 2 hr, n=6
  2 hr Alcohol Intake, Mean: 0.2
Rats [7]; 2 hr, listed as Comp. A
  2 hr Alcohol Intake, individual rat: 0 (2×) and 0.38 (3×) and 0.19
Rats [7]; 4 hr, n=6
  4 hr Alcohol Intake, Mean: 0.7
Rats [7]; 4 hr, listed as Comp. A
  4 hr Alcohol Intake, individual rat: 0.88 and 0.4 and 0.76 and 0.95 and 0.38 and 0.57
Rats [7]; 6 hr, n=6
  6 hr Alcohol Intake, Mean: 1.3
Rats [7]; 6 hr, listed as Comp. A
  6 hr Alcohol Intake, individual rat: 1.72 and 1.2 and 1.23 and 1.71 and 0.95 and 1
Rats [7]; 24 hr, n=6
  24 hr Alcohol Intake, Mean: 4.1
Rats [7]; 24 hr, listed as Comp. A
  24 hr Alcohol Intake, individual rat: 3.2 and 4 and 4.94 and 5.32 and 3.23 and 3.6
Rats [7]; from 2-6 hr
  alcohol intake, in words: reduced alcohol intake
Rats [7]; n=6
  Food Intake, Mean: 19.7
Rats [7]; listed as Comp. A
  Food Intake, individual rat: 19 (2×) and 18 and 21 (2×) and 20

## CCOC(=O)c1ccc(COc2ccc3c(=O)c(-c4ccc(O)cc4)coc3c2)cc1 [PT-34, ethyl 4-{[3-(4-hydroxyphenyl)-4-oxochromen-7-yloxy]methyl}benzoate]
[8]
  IC50: 130 nM
hMAO-A
  IC50: 24000 nM
hMAO-B
  IC50: 2300 nM

## N#CCOc1ccc2c(=O)c(-c3ccc(O)cc3)coc2c1 [PT-88, 2-[3-(4-hydroxyphenyl)-4-oxochromen-7-yloxy]ethanenitrile]
[8]
  IC50: 23 nM
hMAO-A
  IC50: 6200 nM
hMAO-B; at 10 μM, read-out: hMAO-B inhibition (IC50 hMAO-B)
  inhibition at 10 µM: 35%

## O=c1c(-c2ccc(O)cc2)coc2cc(O)ccc12 [daidzein]
Syrian golden hamsters
  suppressing ethanol uptake: effective in suppressing ethanol uptake, but with decreased potency
